Data taken from USRE49340E1, “Use of known compounds as D-amino acid oxidase inhibitors” (National Taiwan University, priority 2014, dated 2022).
Where “and” joins values, the source holds several entries; their conditions need not be identical. Equal values may be shown once. Entries after “also recorded” stand apart in the source; their conditions may differ. Where a name gives a salt, the structure may show the parent alone. Read-outs that look alike come from different tables or passages of the source. Blank lines part the entries; values can stand above or below the molecule they belong to.

How the values were obtained:
porcine kidney DAAO = porcine kidney DAAO (Sus scrofa (Pig), UniProt P00371); experiment: DAAO enzymatic assay; type: biochemical
Description: The DAAO activity was measured by using substrate D-alanine reaction produced hydrogen peroxide (H2O2) to further react with 3-(4-hydroxyphenyl) propionic acid (HPPA). The HPPA were oxidized by H2O2 and peroxidase to become the fluorogenic dimer which was measured to represent the activity of DAAO. The substrate of DAAO was prepared in 50 mM D-alanine (dissolved in 0.2 M Tris-HCl buffer, pH 8.3). […] A 10 ul of D-alanine and drug mixture was incubated with 220 ul of Reaction Master Mix in black 96 well plate at 37° C. for 5 min. The Reaction Master Mix contained 110 ul of 5 U/mL porcine kidney DAAO (Sigma-Aldrich, USA) solution (dissolved with 0.2 M Tris-HCl buffer, pH 8.3), 1.1 mL of 15 U/mL peroxidase solution (dissolved with 0.2 M Tris-HCl buffer, pH 8.3), 1.1 mL of 20 mM HPPA solution (dissolved with 0.2 M Tris-HCl buffer, pH 8.3), and 2.2 ml of 2 M Tris-HCl buffer (pH 8.3) for 110 reaction assays.
The higher is the DAAO enzymatic activity, the higher is the fluorescence intensity. The fluorometric inhibition indicator (Fi) was obtained from the following equation: Fi=(Fs−FDrug)/(FDMSO). Where the fluorescent drug blank (FDrug) were measured in the drug mixture solution (using 0.2 M Tris HCl buffer, pH 8.3, without D-alanine). A DMSO blank (FDMSO) was measured under a 100% DMSO solution. Although, in the assay for D-amino acid oxidase, FAD was generally included in the reaction mixture because this co-factor is easily dissociated from the holoenzyme, the present method was performed without FAD. […] The IC50 value was calculated by GraphPad Prism, version 5 software (GraphPad Software, Inc., La Jolla, Calif.) (GraphPad Prism 5, GraphPad software Inc: California, USA) through nonlinear regression model.

[1] = system: C57/B16 mice with MK-801 injection; experiment: Prepulse inhibition in MK-801 mouse model of schizophrenia; type: in vivo; settings: mice given MK-801 0.2 mg/kg i.p., 40 mg/kg RS-D7
Excerpt: (§1) Taking advantage of wild-type (WT, healthy) mouse and pharmacologic animal models of schizophrenia, such as MK-801 and methamphetamine mouse model of schizophrenia, as the well-established animal models of schizophrenia, we investigate the therapeutic potential of RS-D7, a DAO inhibitor, on the alleviation of schizophrenia-related negative and cognitive deficits. A serial of behavioral tasks has been selected and conducted for mimicking the cognitive (e.g., prepulse inhibition) and negative symptoms (e.g., sucrose preference test and hot plate test) of schizophrenia in healthy control mice or pharmacological mouse model of schizophrenia (Lai, W. S et al., Current Pharmaceutical Design, 2014, 20(32), 5139-50). The pharmacological animal model of schizophrenia is due in part to similarities in clinical presentation and response to treatment. These behavioral tasks have been evaluated with varying degrees of test validities for assessing schizophrenia-relevant behavioral deficits in mice. Different batches of male adult C57/B16 mice were used and the details of different behavioral tasks were described elsewhere.
(§2) MK-801 is a non-competitive NMDA receptor antagonist. An injection and chronic injections of MK-801 provide a potential animal model to mimic both the negative and cognitive symptoms of schizophrenia. […]

[2] = system: ICR mice with methamphetamine injection; experiment: Prepulse inhibition in methamphetamine mouse model of schizophrenia; type: in vivo; settings: ICR mice with methamphetamine 3 mg/kg i.p., 20 mg/kg i.p., especially 74 dB prepulse, vs DMSO and CBIO controls; listed as RS-D7
Excerpt: Methamphetamine is a potent psychostimulant that increases the amount of extracellular dopamine in the brain. Methamphetamine (or amphetamine)-induced psychosis model has been well-established and useful for schizophrenia in laboratory animals.

WT mice [3] = experiment: Hot plate test in WT mouse model; type: in vivo; settings: 55° C. hot plate, 40 mg/kg i.p., vs WT controls, listed as RS-D7
Excerpt: as §1
For schizophrenia-like negative symptoms in mice, hot plate test was used to assess basic pain and nociception function in mice. […]

[4] = system: C57/B16 mice with MK-801 injection; experiment: Hot plate test in MK-801 mouse model of schizophrenia; type: in vivo; settings: mice given MK-801 0.2 mg/kg i.p.; listed as RS-D7
Excerpt: as §1, §2

[5] = system: C57/B16 mice with MK-801 injection; experiment: Sucrose preference test in MK-801 mouse model of schizophrenia; type: in vivo; settings: mice given MK-801 0.2 mg/kg i.p., 20 mg/kg RS-D7
Excerpt: as §1, §2

WT mice [6] = experiment: Prepulse inhibition (PPI) in WT mouse model; type: in vivo; settings: 20 mg/kg i.p., 78 dB prepulse, vs saline controls, listed as RS-D7
Excerpt: as §1
To assess schizophrenia-like cognitive function in mice, prepulse inhibition (PPI) was used to evaluate sensorimotor gating functions in mice after RS-D7 injection. […]

[7] = porcine kidney DAAO, D-alanine substrate, HPPA fluorescence, pH 8.3, 37° C.

porcine kidney DAAO, sequence (P00371 whole entry): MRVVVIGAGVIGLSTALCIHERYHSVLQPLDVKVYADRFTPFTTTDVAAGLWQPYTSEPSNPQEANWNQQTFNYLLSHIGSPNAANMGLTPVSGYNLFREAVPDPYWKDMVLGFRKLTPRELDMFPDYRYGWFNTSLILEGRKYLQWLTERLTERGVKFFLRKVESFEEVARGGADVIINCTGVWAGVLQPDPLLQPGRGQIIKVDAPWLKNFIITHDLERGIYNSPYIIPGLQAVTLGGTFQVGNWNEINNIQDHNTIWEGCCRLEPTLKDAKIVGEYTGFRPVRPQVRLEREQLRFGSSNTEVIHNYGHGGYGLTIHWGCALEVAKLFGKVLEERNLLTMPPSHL

IC50 (porcine kidney DAAO; [7]): 97.6 µM
Compound: CCN(CC)Cc1cc(Nc2ccnc3cc(Cl)ccc23)ccc1O [Amodiaquin, reference compound]

IC50 (porcine kidney DAAO; [7]): 102 µM
Compound: Clc1ccc2c(c1)N=C(N1CCNCC1)c1ccccc1N2 [N-Desmethylclozapine]

IC50 (porcine kidney DAAO; [7]): 106 µM
Compound: COc1ccc2nc([S@@+]([O-])Cc3ncc(C)c(OC)c3C)[nH]c2c1 [Esomeprazole, reference compound]

Further lines, the molecule ahead of its results:

Compound: CNCC[C@H](Oc1cccc2ccccc12)c1cccs1 [Duloxetine, reference compound]
IC50 (porcine kidney DAAO): 5.47 µM

Compound: O=C([O-])c1ccccc1.[Na+] [sodium benzoate, reference compound]
IC50 (porcine kidney DAAO): ~71.7 µM

Compound: COc1cc(OC[C@@H]2CNCC[C@H]2c2ccc(F)cc2)ccc1O [PM-BRL 36610A, (−)trans 4-(4-fluorophenyl)-3-(4-hydroxy-3-methoxyphenoxymethyl)piperidine-hydrochloride]
IC50 (porcine kidney DAAO; [7]): 3.45 µM

Compound: COc1ccc(OC[C@@H]2CNCC[C@H]2c2ccc(F)cc2)cc1O [PM-BRL 36583A, (−)-trans 4-(4-Fluorophenyl)-3-(3-hydroxy-4-methoxyphenoxymethyl) piperidine]
IC50 (porcine kidney DAAO; [7]): 3.67 µM

Compound: COc1c(C)cnc(C[S+]([O-])c2nc3cc(O)ccc3[nH]2)c1C (stereo not shown) [5-O-Desmethyl-Omeprazole]
acoustic prepulse inhibition [1]: alleviates; also recorded: significantly alleviated MK-801 induced PPI deficit
prepulse inhibition (sensorimotor gating function) [2]: alleviates sensorimotor gating deficit; also recorded: induce a greater PPI
latency of mouse first reaction (jump) on hot plate (WT mice [3]): increases nociception function; also recorded: accelerated
numbers of jump on hot plate (WT mice [3]): increases nociception function; also recorded: increased
latency in hot plate test [4]: alleviates; also recorded: alleviated the MK-801-induced alteration
reaction numbers in hot plate test [4]: alleviates; also recorded: alleviated the MK-801-induced alteration
sucrose uptake in sucrose preference test (anhedonia) [5]: alleviates; also recorded: rescued the MK-801 induced deficit
IC50 (porcine kidney DAAO; [7]): 1.19 µM and 1 to 10 µM
prepulse inhibition (sensorimotor gating function) (WT mice [6]): increases; also recorded: induced a greater PPI
